# Key:
# Type in all cases: in vivo, Sprague-Dawley (SD) rats
# [1] = tested on: valproic acid-induced autism rat models; experiment: Social preference test (familiar side vs novel side); conditions: 12.5 mg/kg or 25 mg/kg, intraperitoneal once a day, FIG. 2B
# Experimental: (§1) In particular, valproic acid was subcutaneously injected into female adult Sprague-Dawley (SD) rats on day 12 of gestation, at a dose of 450 mg/kg and in an administration amount of 10 ml/kg, and then the SD rats gave birth to babies. When the born babies were 21 days old, they were grouped according to body weight and selected as autism rat models. As a group administered a solvent, on day 12 of gestation, female adult SD rats were administered a saline solution instead of valproic acid, at the same dose and in the same administration amount.
# (§2) The autism rat models prepared according to Example <1-1> were intraperitoneally administered piperazine-1-carboxamidine 24 days after birth once a day at a predetermined time. At this time, piperazine-1-carboxamidine was administered at a dose of […], 12.5 mg/kg, 25 mg/kg, or 50 mg/kg, and in an amount of 10 ml/kg. The administration process was repeated until all the experiments were completed, and was performed 30 minutes before experiments, in the case of behavioral experiments.
# To further verify an effect of piperazine-1-carboxamidine on treating autism spectrum disorder in valproic acid-induced autism rat models, an experiment for confirming social preference was carried out.
# In particular, after social interest was confirmed in Example <2-1>, another identical type of rat were placed in the empty cage at one end of the box structure, and a social interaction experiment for the autism rat models as experimental groups was conducted for 10 minutes. The cage in which rat were placed in Example <2-1> was regarded as a familiar side, the cage in which new rat were placed was regarded as a novel side, and the degree of interest expressed by the autism rat models as experimental groups was confirmed using the EthoVision system by measuring residence time for each case. A significance test was performed using two-way ANOVA, followed by a Bonferroni's post hoc test.
# [2] = tested on: valproic acid-induced autism rat models; experiment: Social interaction test (three-compartment box, stranger vs empty cage); conditions: 6.25 mg/kg or more, intraperitoneal once a day, 10 minutes test, compared to solvent control (VPA), FIG. 2A
# Experimental: as §1, §2
# To verify an effect of piperazine-1-carboxamidine on treating autism spectrum disorder in valproic acid-induced autism rat models, changes in social interaction according to whether piperazine-1-carboxamidine was administered or not were examined (Crawley, Jacqueline N. Mental retardation and developmental disabilities research reviews 10.4 (2004): 248-258). […]
# [3] = tested on: valproic acid-induced autism rat models; experiment: Repetitive behavior test (grooming time); conditions: 12.5 mg/kg or more, intraperitoneal once a day; grooming time over 10 minutes; compared to autism-induced solvent control; FIG. 3
# Experimental: as §1
# The autism rat models prepared according to Example <1-1> were intraperitoneally administered piperazine-1-carboxamidine 24 days after birth once a day at a predetermined time. […]
# To confirm an autism therapeutic effect of piperazine-1-carboxamidine in valproic acid-induced autism rat models based on these findings, a grooming level enhancement effect was evaluated in the autism rat models.
# In particular, the autism rat models of Example <1-2>, which were administered piperazine-1-carboxamidine and aged between 33 days and 38 days, were placed in a cage (42 cm×29 cm×19 cm) without straw litter and adapted thereto for 10 minutes. Thereafter, the grooming time of the autism rat models was measured for 10 minutes to confirm the degree of repetitive behavior. […]
# [4] = tested on: valproic acid-induced autism rat models; experiment: Open field test (hyperactivity and impulsive behavior); conditions: 25 or 50 mg/kg, intraperitoneal once a day, open field 10 minutes
# Experimental: as §1, §2
# To confirm an effect of piperazine-1-carboxamidine on treating autism spectrum disorder in autism rat models, general locomotor activity of the autism rat models was evaluated by an open field test for assaying enhancement and deterioration of motor functions, sedation, excitement, anxiety, depression, the degree of avoidance, and toxicity. […]
# [5] = tested on: valproic acid-induced autism rat models; experiment: Electroshock-induced seizure threshold (CC50); conditions: 25 mg/kg, intraperitoneal once a day; Litchfield-Wilcoxon method; versus valproic acid-exposed solvent control; FIG. 5
# Experimental: as §1, §2
# To confirm an effect of piperazine-1-carboxamidine on treating autism spectrum disorder in autism rat models, electroshock-induced seizure susceptibility was evaluated in autism rat models (Park, Hyung Geun, et al. European journal of pharmacology 574.2, 2007: 112-119; Browning, R. A., et al. Epilepsy research 6.1, 1990: 1-11). […]
# [6] = 10 minutes test, versus autism-induced solvent control
compound,measurement,setting,value
N=C(N)N1CCNCC1 [piperazine-1-carboxamidine],"level of interest in the familiar side, residence time",[1]; [6],decreased
same,"level of interest in the novel side, residence time",[1]; [6],increased
same,social preference patterns,[1]; relative to normal controls,restored to levels similar to those of the normal controls
same,"degree of interest in new rat (strangers), residence time",[2]; 30 minutes before test,significantly increased
same,"degree of interest in the new empty side, residence time",[2],decreased
same,"degree of grooming (grooming time, repetitive behavior)",[3],decreased
same,emotional disturbance-related movement in the central region (ratio of moving distance in central region to total),[4]; FIG. 4B,reduced to levels of the normal controls
same,degree of hyperactivity (total moving distance),"[4]; versus autism-induced solvent control, FIG. 4A",significantly decreased
same,"CC50 (convulsive current 50, electroshock-induced seizure threshold)",[5],significantly increased
